Literature values, collected in US20110288064A1, “METHODS FOR TREATING DISORDERS ASSOCIATED WITH […] IN A MAMMAL” (priority 2005, published 2011).
“Also recorded” adds a separate entry of the source. Like-named read-outs stand apart in the source and are kept apart here.

Columns and labels:
[1] = animal model for homozygous FH, for example at 25 mg/day
[2] = patients, 25 mg/day monotherapy
[3] = hoFH patients, ezetimibe 10 mg/day added to maximal statin regimen (atorvastatin or simvastatin 80 mg/day)
[4] = clinical studies

## O=C(NC1CCN(CCCCC2(C(=O)NCC(F)(F)F)c3ccccc3-c3ccccc32)CC1)c1ccccc1-c1ccc(C(F)(F)F)cc1 [BMS-201038, N-(2,2,2-Trifluorethyl)-9-[4-[4-[[[4′-(trifluoromethyl)[1,1′biphenyl]-2-Yl]carbonyl]amino]-1-piperidinyl]butyl]9H-fluorene-9-carboxamide]
[1]
  plasma cholesterol levels: effectively reduced plasma cholesterol levels in a dose dependent manner
[2]
  adverse events: gastrointestinal disturbances, abnormalities in liver function, and hepatic steatosis; also recorded: gastrointestinal disorders, abnormalities in liver function and/or hepatic steatosis

## O=C1[C@H](CC[C@H](O)c2ccc(F)cc2)[C@@H](c2ccc(O)cc2)N1c1ccc(F)cc1 [ezetimibe]
[3]
  total reduction of LDL-C levels: 27%

## Cc1cc(C)c2c3ccccc3n(Cc3ccc([C@@H](C(=O)N[C@H](CO)c4ccccc4)C4CCCC4)cc3)c2n1 [implitapide, (2S)-2-cyclopentyl-2-[4-[(2,4-dimethyl-9H-pyrido[2,3-b]indol-9-yl)methyl]phenyl]-N-[(1S)-2-hydroxy-1-phenylethyl]ethanamide]
[4]; 80 mg/day or greater
  therapeutic efficacy: therapeutically effective
[4]; 80 mg/day or greater (80 mg/day, 160 mg/day)
  adverse events: gastrointestinal disturbances, abnormalities in liver function, and hepatic steatosis; also recorded: gastrointestinal disorders, abnormalities in liver function and/or hepatic steatosis
